From patent US9023821B2, “Use of MicroRNA for treating diseases associated with a dysfunction of the cilia in multiciliated epithelial cells” (Centre National de la Recherche Scientifique, priority 2009, dated 2015)

Assays:
[1] = test system: basal cells and pyramidal cells of the airway epithelium; assay: miRNA expression in sorted basal cells versus pyramidal cells (ciliated + secretory), HTS and Agilent chips; parameters: species or system human; conditions: for Modulation of expression of the miRNAs in pyramidal cells (323(−)) relative to basal cells 323(+): HTS and Agilent chips; for Intensity of the level of expression in log2 in pyramidal cells (323(−)): pyramidal cells (ciliated + secretory)
Procedure: After dissociation of the stroma of nasal polyps, the epithelial cells (about 20.10^6) are incubated in PBS-BSA-EDTA for 30 min and then incubated with labeled antibody CD151-PE and anti-TF (tissue factor)-FITC for 20 min, 4° C. (see Hajj, R. et al., Stem Cells 25, 139-148 (2007)). After washing twice, the cells are taken up in PBS-EDTA and incubated with DAPI for labeling the cells whose integrity has been altered.
Cell sorting was carried out on the FACSAria sorter (BD Biosciences) equipped with 3 lasers, blue, red and violet. Dead cells, aggregates and double cells were excluded. The doubly positive population of basal cells (CD151+/FT+) and the negative population of cylindrical cells (containing ciliated cells and mucus-secreting cells) (CD151−/FT−) were selected and sorted at a rate of 5000 events/s ([…]). The purity and identity of the sorted cells were then verified by cytometry and immunocytochemistry.
Like the native airway epithelium, the model of differentiation in vitro used in these tests consists of basal cells, ciliated cells and mucus-secreting cells. In order to identify the repertoires of the miRNAs specific to each of the cellular types, the inventors used cell sorting by flow cytometry by means of specific markers (Hajj, R. et al. 2007). Using this technique, adult airway progenitor cells (corresponding a priori to basal cells) were isolated, selected and sorted (such cells appear doubly positive for tetraspanin CD151 and for the tissue factor) from the pyramidal cells (i.e. ciliated cells and mucus-secreting cells) which appear negative for these same markers. These were purified from polyps or from nasal conchae obtained from 3 separate donors.
After extracting the total RNAs, the expression profiles of the miRNAs were established by means of Agilent® commercial chips or by high-throughput sequencing (HTS). […] For the first time, the inventors thus attribute a repertoire of expression of the miRNAs specifically to separate cellular types of the airway epithelium during differentiation.

[2] = test system: human airway epithelial cells (HAECs); assay: High-throughput sequencing (HTS) of miRNAs at four stages of differentiation of HAECs; conditions: for Modulation (ratio of the level of intensity of expression in log2 in two stages of differentiation) measured by high-throughput sequencing, D7 − D0 / Modulation (ratio of the level of intensity of expression in log2 in two stages of differentiation) measured by high-throughput sequencing, FC − D7 / Modulation (ratio of the level of intensity of expression in log2 in two stages of differentiation) measured by high-throughput sequencing, WD − D0 / Modulation (ratio of the level of intensity of expression in log2 in two stages of differentiation) measured by high-throughput sequencing, WD − FC / Level of intensity of expression in log2 measured by high-throughput sequencing, D0 / Level of intensity of expression in log2 measured by high-throughput sequencing, D7 / Level of intensity of expression in log2 measured by high-throughput sequencing, FC / Level of intensity of expression in log2 measured by high-throughput sequencing, WD: Table VI; for Level of intensity of expression in log2 At the differentiated stage (WD) measured in HTS: healthy human airway epithelial tissue; for Level of intensity of expression in log2 measured by high-throughput sequencing, D0: stage D0; for Level of intensity of expression in log2 measured by high-throughput sequencing, D7: stage D7; for Level of intensity of expression in log2 measured by high-throughput sequencing, FC: stage FC; for Level of intensity of expression in log2 At the differentiated stage (WD) measured in HTS / Level of intensity of expression in log2 measured by high-throughput sequencing, WD: stage WD
From the text: The total RNAs were extracted from HAECs cultivated at the air-liquid interface at four stages of differentiation: ALI-D0 (0 day), ALI-D7 (7 days), ALI-FC (during appearance of the first cilia at about 14 days) and ALI-WD (wholly differentiated at about 21 days). The cells are lysed in reagent with Trizol® (Invitrogen). The total RNAs containing small RNAs and microRNAs are purified on Qiagen RNEasy columns (Qiagen) according to the supplier's instructions.
The total RNAs containing small RNAs and microRNAs are isolated as before. The procedure is based on the Applied Biosystems Ligase-Enhanced Genome Detection technology (LEGenD™); the SOLiD™ Small RNA Expression kit (Applied Biosystems, France) was used. With this method it is possible to convert the small RNAs of a sample into a library of double-stranded DNA; it was developed by Applied Biosystems SOLiD™ System for a new generation of high-throughput sequencing.
The high-throughput sequencing of the microRNAs was carried out according to the supplier's recommendations. Briefly, the total RNAs containing the small RNAs are hybridized (65° C., 10 min, then at 16° C., 5 min) and ligated (16° C., 2-16 h in a thermocycler) with the Adaptor Mix A for producing a matrix for sequencing the 5′ end of the small RNAs, or with the Adaptor Mix B for sequencing the 3′ end. The samples are then reverse-transcribed (42° C., 30 min) to synthesize the complementary DNA (cDNA). The library of small RNAs is amplified by PCR and after migration on polyacrylamide gel the amplified small RNAs are cut out and extracted from the gel according to their size (length of about 105-150 bases, according to the supplier's instructions), eluted and resuspended in nuclease-free water. The concentration of nucleic acids is then measured and normalized before proceeding with preparation of the samples for sequencing.
For each microRNA sequenced, the number of sequences of the 5p strand and of the 3p strand of the microRNA was normalized to 10^6 sequences and converted to percentage abundance of expression for each of the microRNAs. The data were then normalized according to a linear model and an empirical Bayesian method using software R. For subsequent analyses, only the microRNAs were retained for which the percentage expression (or abundance) is greater than 1% of the total of the microRNAs in at least one culture condition, with a |Log2 Ratio| below 0.5 and an adjusted P-value below 0.05.

[3] = test system: human airway epithelial cells (HAECs); assay: Agilent miRNA chips, miRNA expression at four stages of differentiation of HAECs; conditions: for Modulation (ratio of the level of intensity of expression in log2 in two stages of differentiation) measured with the Agilent chips, D7 − D0 / Modulation (ratio of the level of intensity of expression in log2 in two stages of differentiation) measured with the Agilent chips, FC − D7 / Modulation (ratio of the level of intensity of expression in log2 in two stages of differentiation) measured with the Agilent chips, WD − D0 / Modulation (ratio of the level of intensity of expression in log2 in two stages of differentiation) measured with the Agilent chips, WD − FC / Level of intensity of expression in log2 measured with the Agilent chips, D0 / Level of intensity of expression in log2 measured with the Agilent chips, D7 / Level of intensity of expression in log2 measured with the Agilent chips, FC / Level of intensity of expression in log2 measured with the Agilent chips, WD: Table VI; for Modulation (ratio of the level of intensity of expression in log2 at two stages of differentiation), FC − D7 / Modulation (ratio of the level of intensity of expression in log2 at two stages of differentiation), WD − FC: Agilent miRNA chips, Table V; for Level of intensity of expression in log2 measured with the Agilent chips, D0: stage D0; for Level of intensity of expression in log2 measured with the Agilent chips, D7: stage D7; for Level of intensity of expression in log2 measured with the Agilent chips, FC: stage FC; for Level of intensity of expression in log2 measured with the Agilent chips, WD: stage WD
From the text: In parallel with the high-throughput sequencing of the microRNAs, the repertoire of expression of the microRNAs (microRNAome) is investigated using the technology of Agilent® microRNA chips. For this, RNA samples from the same patients as before were used, labeled and hybridized on Agilent® miRNA chips (Human miRNA Microarray v2, containing 866 human miRNAs and 89 human viral miRNAs, i.e. all the human miRNAs contained and referenced in Sanger miRBase v.12.0, Agilent Technologies, France) using the “miRNA labeling and hybridization” kit, following the supplier's instructions (Agilent Technologies).
The inventors then used the Agilent miRNA chips to investigate the repertoire of expression of the miRNAs of the human airway epithelium and compare the results obtained in high-throughput sequencing with those obtained with Agilent® commercial miRNA chips.

Substance	Modulation of expression of the miRNAs in pyramidal cells (323(−)) relative to basal cells 323(+) [1]	Intensity of the level of expression in log2 in basal cells (323(+)) [1] [log2]	Intensity of the level of expression in log2 in pyramidal cells (323(−)) [1] [log2]	Modulation (ratio of the level of intensity of expression in log2 in two stages of differentiation) measured by high-throughput sequencing, D7 − D0 [2] [log2]	Modulation (ratio of the level of intensity of expression in log2 in two stages of differentiation) measured by high-throughput sequencing, FC − D7 [2] [log2]	Modulation (ratio of the level of intensity of expression in log2 in two stages of differentiation) measured by high-throughput sequencing, WD − D0 [2] [log2]	Modulation (ratio of the level of intensity of expression in log2 in two stages of differentiation) measured by high-throughput sequencing, WD − FC [2] [log2]	Level of intensity of expression in log2 At the differentiated stage (WD) measured in HTS [2] [log2]	Level of intensity of expression in log2 measured by high-throughput sequencing, D0 [2] [log2]	Level of intensity of expression in log2 measured by high-throughput sequencing, D7 [2] [log2]	Level of intensity of expression in log2 measured by high-throughput sequencing, FC [2] [log2]	Level of intensity of expression in log2 measured by high-throughput sequencing, WD [2] [log2]	Modulation (ratio of the level of intensity of expression in log2 in two stages of differentiation) measured with the Agilent chips, D7 − D0 [3] [log2]	Modulation (ratio of the level of intensity of expression in log2 at two stages of differentiation), FC − D7 [3] [log2]	Modulation (ratio of the level of intensity of expression in log2 in two stages of differentiation) measured with the Agilent chips, FC − D7 [3] [log2]	Modulation (ratio of the level of intensity of expression in log2 in two stages of differentiation) measured with the Agilent chips, WD − D0 [3] [log2]	Modulation (ratio of the level of intensity of expression in log2 at two stages of differentiation), WD − FC [3] [log2]	Modulation (ratio of the level of intensity of expression in log2 in two stages of differentiation) measured with the Agilent chips, WD − FC [3] [log2]	Level of intensity of expression in log2 measured with the Agilent chips, D0 [3] [log2]	Level of intensity of expression in log2 measured with the Agilent chips, D7 [3] [log2]	further results
hsa-let-7c: human miRNA, SEQ ID No. 159 (UGAGGUAGUAGGUUGUAUGGUU; expressed or natural sequence; listed as Homo sapiens)	−0.48	9.43	8.95	0.14	0.21	0.90	0.55	7.86	6.96	7.10	7.31	7.86	1.61	−0.71	−0.71	1.05	0.14	0.14	9.10	10.71	Level of intensity of expression in log2 measured with the Agilent chips, FC [3]: 10.00 log2; Level of intensity of expression in log2 measured with the Agilent chips, WD [3]: 10.15 log2
hsa-let-7e: human miRNA, SEQ ID No. 160 (UGAGGUAGGAGGUUGUAUAGUU; expressed or natural sequence; listed as Homo sapiens)	−1.42	8.24	6.82	0.38	−0.27	0.18	0.07	7.60	7.42	7.80	7.53	7.60	1.38	−0.57	−0.57	0.95	0.15	0.15	8.53	9.91	Level of intensity of expression in log2 measured with the Agilent chips, FC [3]: 9.34 log2; Level of intensity of expression in log2 measured with the Agilent chips, WD [3]: 9.48 log2
